{
  "source": "ChEMBL document CHEMBL5223082",
  "about": "“Alkyl-Aryl-Vancomycins: Multimodal Glycopeptides with Weak Dependence on the Bacterial Metabolic State” (J Med Chem, 2021)",
  "key": {"Staphylococcus aureus [1]": {"tested_on": "Staphylococcus aureus", "assay": "Ratio of MIC for antibacterial activity against Methicillin-resistant Staphylococcus aureus ATCC 33591 in presence of N,N'-diacetyl-L-Lys-D-Ala-D-Ala to MIC for antibacterial activity against Methicillin-resistant Staphylococcus aureus ATCC 33591", "format": "functional"}, "Staphylococcus aureus [2]": {"tested_on": "Staphylococcus aureus", "assay": "Antibacterial activity against Methicillin-resistant Staphylococcus aureus ATCC 33591 persister cells assessed as reduction in bacterial colonies at 40 uM incubated for 24 hrs in broth solution followed by incubation on agar plate for 48 hrs by spot plating method", "format": "functional, organism-based", "conditions": "time 72.0 hrs"}, "Enterococcus [3]": {"tested_on": "Enterococcus", "assay": "Antibacterial activity against Vancomycin-resistant Enterococci NR30909 assessed as inhibition of bacterial growth incubated for 18 to 24 hrs by CLSI microbroth dilution method", "format": "functional", "conditions": "time 18-24 hrs"}, "Cell membrane [4]": {"tested_on": "Cell membrane", "assay": "Induction of cytoplasmic membrane depolarization in Vancomycin-resistant Enterococci assessed as increase in fluorescence intensity at 10 uM measured for 35 to 40 mins by DiSC3(5) dye based fluorescence analysis", "format": "subcellular", "conditions": "Enterococcus, time 35-40 min"}, "Bacillus subtilis [5]": {"tested_on": "Bacillus subtilis", "assay": "Antibacterial activity against Bacillus subtilis 168 assessed as concentration that requires for bacterial growth retardation measured for every 30 mins", "format": "functional"}, "Staphylococcus aureus [6]": {"tested_on": "Staphylococcus aureus", "assay": "Antibacterial activity against Vancomycin-resistant Staphylococcus aureus 12 assessed as inhibition of bacterial growth incubated for 18 to 24 hrs by CLSI microbroth dilution method", "format": "functional", "conditions": "time 18-24 hrs"}, "Staphylococcus aureus [7]": {"tested_on": "Staphylococcus aureus", "assay": "Antibacterial activity against Vancomycin-resistant Staphylococcus aureus 4 assessed as inhibition of bacterial growth incubated for 18 to 24 hrs by CLSI microbroth dilution method", "format": "functional", "conditions": "time 18-24 hrs"}, "Staphylococcus aureus [8]": {"tested_on": "Staphylococcus aureus", "assay": "Bactericidal activity against methicillin-resistant Staphylococcus aureus ATCC 33591 assessed as reduction in bacterial colonies at MIC to 8XMIC incubated for 6 hrs in broth solution followed by culturing for 24 hrs on agar plate by spot plating method", "format": "functional, organism-based", "conditions": "time 30.0 hrs"}, "Staphylococcus aureus [9]": {"tested_on": "Staphylococcus aureus", "assay": "Antibacterial activity against Methicillin-resistant Staphylococcus aureus ATCC 33591 assessed as log reduction in bacterial colonies at 10XMIC incubated for 1 hr in broth solution followed by plating on nutrient agar plate", "format": "functional"}, "Staphylococcus aureus [10]": {"tested_on": "Staphylococcus aureus", "assay": "Antibacterial activity against Vancomycin-resistant Staphylococcus aureus 1 assessed as inhibition of bacterial growth incubated for 18 to 24 hrs by CLSI microbroth dilution method", "format": "functional", "conditions": "time 18-24 hrs"}, "Cell membrane [11]": {"tested_on": "Cell membrane", "assay": "Induction of cytoplasmic membrane depolarization in Methicillin-resistant Staphylococcus aureus ATCC 33591 assessed as increase in fluorescence intensity at 10 uM measured for 35 to 40 mins by DiSC3(5) dye based fluorescence analysis", "format": "subcellular", "conditions": "time 35-40 min"}, "Staphylococcus aureus [12]": {"tested_on": "Staphylococcus aureus", "assay": "Antibacterial activity against Methicillin-resistant Staphylococcus aureus ATCC 33591 assessed as time duration of post-antibiotic effect for suppression of bacterial growth at 10XMIC incubated for 1 hr in broth solution followed by washing for drug removal and subsequent plating on nutrient agar plate", "format": "functional"}, "Cell membrane [13]": {"tested_on": "Cell membrane", "assay": "Induction of cytoplasmic membrane depolarization in Bacillus subtilis assessed as increase in fluorescence intensity at 10 uM measured for 35 to 40 mins by DiSC3(5) dye based fluorescence analysis", "format": "subcellular", "conditions": "time 35-40 min"}, "Staphylococcus aureus [14]": {"tested_on": "Staphylococcus aureus", "assay": "Antibacterial activity against Methicillin-resistant Staphylococcus aureus ATCC 33591 assessed as inhibition of bacterial growth preincubated compound with N,N'-diacetyl-L-Lys-D-Ala-D-Ala for 10 mins followed by incubation with bacterial culture for 18 to 24 hrs by CLSI microbroth dilution method", "format": "functional", "conditions": "time 1090-1450 min"}, "[15]": {"biological_target": "T1, Septum site-determining protein MinD (Bacillus subtilis (strain 168)) (UniProt Q01464)", "T1 sequence (whole entry)": "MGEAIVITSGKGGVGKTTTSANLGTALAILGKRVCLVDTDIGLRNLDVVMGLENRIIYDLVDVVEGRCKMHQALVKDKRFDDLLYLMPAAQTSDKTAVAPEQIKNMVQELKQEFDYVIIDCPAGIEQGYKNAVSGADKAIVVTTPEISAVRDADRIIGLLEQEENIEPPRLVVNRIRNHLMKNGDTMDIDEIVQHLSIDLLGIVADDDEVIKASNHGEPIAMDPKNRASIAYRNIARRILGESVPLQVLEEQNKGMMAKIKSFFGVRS", "assay": "Delocalization of GFP tagged-MinD in Bacillus subtilis 168 at PEC incubated for 15 mins by fluorescence microscopy"}, "Staphylococcus aureus [16]": {"tested_on": "Staphylococcus aureus", "assay": "Antibacterial activity against Methicillin-resistant Staphylococcus aureus ATCC 33591 assessed as inhibition of bacterial growth preincubated compound with teichoic-acid for 1 hr followed by incubation with bacterial culture for 18 to 24 hrs by CLSI microbroth dilution method", "format": "functional", "conditions": "time 19-25 hrs"}, "Staphylococcus aureus [17]": {"tested_on": "Staphylococcus aureus", "assay": "Antibacterial activity against Methicillin-resistant Staphylococcus aureus ATCC 33591 assessed as inhibition of bacterial growth incubated for 18 to 24 hrs by CLSI microbroth dilution method", "format": "functional", "conditions": "time 18-24 hrs"}, "Staphylococcus aureus [18]": {"tested_on": "Staphylococcus aureus", "assay": "Antibiofilm activity against Methicillin-resistant Staphylococcus aureus ATCC 33591 assessed as bacterial biofilm thickness at 20 uM incubated for 24 hrs by confocal laser scanning microscopy (reference value: 8 micrometer)", "format": "functional"}, "Bacillus subtilis [19]": {"tested_on": "Bacillus subtilis", "assay": "Inhibition of cell wall biosynthesis in Bacillus subtilis 168 assessed as bubble-like formation on bacterial cell surface at PEC incubated for 15 mins by light microscopic analysis", "format": "functional, organism-based"}, "Enterococcus [20]": {"tested_on": "Enterococcus", "assay": "Antibacterial activity against Vancomycin-resistant Enterococci NR30903 assessed as inhibition of bacterial growth incubated for 18 to 24 hrs by CLSI microbroth dilution method", "format": "functional", "conditions": "time 18-24 hrs"}, "Staphylococcus aureus [21]": {"tested_on": "Staphylococcus aureus", "assay": "Ratio of MIC for antibacterial activity against Methicillin-resistant Staphylococcus aureus ATCC 33591 measured after 27 passages to MIC for antibacterial activity against Methicillin-resistant Staphylococcus aureus ATCC 33591 measured after 18 to 24 hrs incubation", "format": "functional"}, "Enterococcus [22]": {"tested_on": "Enterococcus", "assay": "Antibacterial activity against Vancomycin-resistant Enterococci ATCC 51575 assessed as inhibition of bacterial growth incubated for 18 to 24 hrs by CLSI microbroth dilution method", "format": "functional", "conditions": "time 18-24 hrs"}, "Enterococcus [23]": {"tested_on": "Enterococcus", "assay": "Antibacterial activity against Vancomycin-resistant Enterococci ATCC 51559 assessed as inhibition of bacterial growth incubated for 18 to 24 hrs by CLSI microbroth dilution method", "format": "functional", "conditions": "time 18-24 hrs"}, "Staphylococcus aureus [24]": {"tested_on": "Staphylococcus aureus", "assay": "Antibiofilm activity against Methicillin-resistant Staphylococcus aureus ATCC 33591 assessed as log reduction in bacterial viability within the biofilms at 20 uM incubated for 24 hrs in broth solution followed by culturing on agar plate for 24 hrs by spot plating method", "format": "functional", "conditions": "time 48 hrs"}},
  "note": "Active and inactive are the calls of the source. The rule behind the calls is not given here.",
  "data": [
    {"smiles": "CN[C@H](CC(C)C)C(=O)N[C@H]1C(=O)N[C@@H](CC(N)=O)C(=O)N[C@H]2C(=O)N[C@H]3C(=O)N[C@H](C(=O)N[C@H](C(=O)O)c4cc(O)cc(O)c4-c4cc3ccc4O)[C@H](O)c3ccc(c(Cl)c3)Oc3cc2cc(c3O[C@@H]2O[C@H](CO)[C@@H](O)[C@H](O)[C@H]2O[C@H]2C[C@](C)(N)[C@H](O)[C@H](C)O2)Oc2ccc(cc2Cl)[C@H]1O", "note": "[VANCOMYCIN]", "values": [
      {"measurement": "Ratio", "setting": "Staphylococcus aureus [1]", "value": ">40"},
      {"measurement": "Activity", "setting": "Staphylococcus aureus [2]", "value": "inactive"},
      {"measurement": "MIC", "setting": "Enterococcus [3]", "value": 346, "unit": "µM"},
      {"measurement": "Activity", "setting": "Cell membrane [4]", "value": "inactive"},
      {"measurement": "EC", "setting": "Bacillus subtilis [5]", "value": 0.4, "unit": "µM"},
      {"measurement": "MIC", "setting": "Staphylococcus aureus [6]", "value": 346, "unit": "µM"},
      {"measurement": "MIC", "setting": "Staphylococcus aureus [7]", "value": 346, "unit": "µM"},
      {"measurement": "Activity", "setting": "Staphylococcus aureus [8]", "value": "Active"},
      {"measurement": "Activity", "setting": "Staphylococcus aureus [9]", "value": 0.5, "unit": "log10CFU/ml"},
      {"measurement": "MIC", "setting": "Staphylococcus aureus [10]", "value": 346, "unit": "µM"},
      {"measurement": "Activity", "setting": "Cell membrane [11]", "value": "inactive"},
      {"measurement": "Time", "setting": "Staphylococcus aureus [12]", "value": 6, "unit": "h"},
      {"measurement": "Activity", "setting": "Cell membrane [13]", "value": "inactive"},
      {"measurement": "MIC", "setting": "Staphylococcus aureus [14]", "value": "> 30", "unit": "µM"},
      {"measurement": "Activity", "setting": "[15]", "value": "inactive"},
      {"measurement": "MIC", "setting": "Staphylococcus aureus [16]", "value": 0.6, "unit": "µM"},
      {"measurement": "MIC", "setting": "Staphylococcus aureus [17]", "value": 0.6, "unit": "µM"},
      {"measurement": "Activity", "setting": "Staphylococcus aureus [18]", "value": 7, "unit": "um"},
      {"measurement": "inhibition", "setting": "Bacillus subtilis [19]", "value": "Active"},
      {"measurement": "MIC", "setting": "Enterococcus [20]", "value": 692, "unit": "µM"},
      {"measurement": "Ratio", "setting": "Staphylococcus aureus [21]", "value": 2},
      {"measurement": "MIC", "setting": "Enterococcus [22]", "value": 346, "unit": "µM"},
      {"measurement": "MIC", "setting": "Enterococcus [23]", "value": 1380, "unit": "µM"},
      {"measurement": "Activity", "setting": "Staphylococcus aureus [24]", "value": 0.9, "unit": "log10CFU/ml"}
    ]}
  ]
}
